Laboratory results published in patent US20220218667A1, “DUAL INHIBITORS OF SOLUBLE EPOXIDE HYDROLASE AND METHODS OF USE THEREOF” (OROX Biosciences, Inc., priority 2019, published 2022).
Values joined by “and” are separate entries in the source; they are usually repeats but may differ in a detail not shown here. Equal entries are not always repeated. “Also recorded” adds a separate entry of the source. Where two headings read alike, the source gives them in different places.

What was measured:
[1] = molecular target: T1, human sEH (Homo sapiens, UniProt P34913); assay: sEH inhibition IC50, fluorescent-based assay with purified recombinant sEH; type: biochemical
T1 sequence (P34913 1-555): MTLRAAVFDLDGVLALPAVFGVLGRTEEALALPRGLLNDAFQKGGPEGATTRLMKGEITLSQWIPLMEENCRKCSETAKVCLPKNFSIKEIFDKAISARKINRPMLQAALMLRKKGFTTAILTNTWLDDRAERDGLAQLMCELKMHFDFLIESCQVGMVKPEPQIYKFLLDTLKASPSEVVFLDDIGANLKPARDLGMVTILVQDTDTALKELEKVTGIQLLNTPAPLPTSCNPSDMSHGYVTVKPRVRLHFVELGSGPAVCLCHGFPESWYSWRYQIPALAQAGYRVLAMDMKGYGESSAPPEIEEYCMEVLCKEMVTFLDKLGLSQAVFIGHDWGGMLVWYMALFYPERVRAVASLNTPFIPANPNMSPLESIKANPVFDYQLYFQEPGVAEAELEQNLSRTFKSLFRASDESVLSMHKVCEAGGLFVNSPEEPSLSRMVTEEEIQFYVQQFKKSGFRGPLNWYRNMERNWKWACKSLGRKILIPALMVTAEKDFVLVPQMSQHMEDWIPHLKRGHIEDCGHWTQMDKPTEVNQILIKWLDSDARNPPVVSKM
Experimental: sEH inhibition IC50 values for the compounds presented herein can be assayed by a recombinant affinity assay using purified sEHs, from human, mouse or rat, in a fluorescent-based assay. In such an assay, enzymes, e.g., ˜1 nM human sEH, are incubated with a potential inhibitors for 5 min in 25 mM Bis-Tris/HCl buffer (200 μL; pH 7.0) at 30° C. before a substrate, e.g., cyano(2-methoxynaphthalen-6-yl)methyl trans-(3-phenyl-oxyran-2-yl)methyl carbonate, (CMNPC) is added ([S]final=5 μM).

[2] = test system: C57B/L6 mice exposed to bleomycin; assay: Example 1: prophylactic treatment of mice exposed to bleomycin (IPF model); type: in vivo, mouse
Source text: 4-(5-phenyl-3-{3-[3-(4-trifluoromethyl-phenyl)-ureido]-propyl}-pyrazol-1-yl)-benzenesulfonamide (PTUPB) [termed OX1] was compared to Pirfenidone, Nintedanib, and GSK225629415 [termed OX3] for treatment of IPF using an established model for IPF treating, which is prophylactic treatment of mice exposed to the chemotherapeutic agent bleomycin. […] Pirfenidone and Nintedanib are standard of care for the treatment of idiopathic pulmonary fibrosis and served as reference compounds in the experiment.
C57B/L6 mice were used in the experiments. When used, Bleomycin was administered intra-oropharyngeally, 1.5 U/kg, QD per established protocol. The test articles were dosed via oral gavage in 200 μL/day vehicle. The doses and formulations of test articles were selected based on the literature describing the lowest doses capable of eliciting pharmacological action.
Animals were dosed with the test articles (or vehicle) starting at day −1 to day 20. On day 1, daily doses of Bleomycin commenced in all but group 1 (negative control) which received the vehicle. On day 21, all animals were weighed and sacrificed. After lungs and bronco-alveolar lavage fluid (BALF) were harvested, they were prepared according to standard procedures for further analysis and histology. All animals were assessed twice a week for body weight and overall appearance. Efficacy endpoints measured in this study included lung weight, total leukocytes, and histology as determined by Mason's Trichrome stain and scored using a modified Ashcroft score.
The following parameters were measured in bronchoalveolar fluid (BALF): 1) soluble collagen and 2) differential leukocyte counts for different leukocyte populations.
After weighing and removal of BALF from the lungs, they were inflated and fixed using 10% neutral buffered formalin for histopathology analysis. Fifty-four formalin-fixed lung samples from mice were submitted to HistoTox Labs and were processed routinely. Two slides from each block were sectioned and stained with hematoxylin and eosin (H&E) or Masson's trichrome. Glass slides were evaluated with light microscopy by a board-certified veterinary pathologist. Lung sections were scored according to the modified Ashcroft scale.

[3] = test system: Human primary lung fibroblasts from IPF donors; assay: Fibroblast-to-Myofibroblast Transition (FMT) assay; type: cell-based; details: for IC50: Homo sapiens, Primary lung fibroblast, 1.25 ng/ml TGF-b1
Experimental: OX1 was evaluated in a primary cell-based Fibroblast-to-Myofibroblast Transition (FMT) assay; an in vitro assay relevant to idiopathic pulmonary fibrosis (TPF). Human primary lung fibroblasts from three (3) IPF donors (IPF06, IPF07, and IPF08) were triggered using 1.25 ng/ml TGF-b1 to induce FMT, one hour after application of compounds. OX1 and Nintedanib (approved drug for TPF) were applied in […] in semi-log dilutions with the top concentration at […] to construct eight (8)-point concentration response curve (CRC) in biological duplicates (ie. on two (2) different cell plates at on (1) occasion). SB525334 was used at […] in 0.1% DMSO as a positive validation control. The readouts at 72 hours were high content analysis (HCA) for aSMA expression and DAPI staining for nuclear count as measurement of potential cytotoxic effects.

[4] = day 21, OX1, OX3, Nintedanib 30 mg/kg QD, Pirfenidone 100 mg/kg BID, oral
[5] = day 21, compared to vehicle (Group 2), OX1, OX3, Nintedanib 30 mg/kg QD, Pirfenidone 100 mg/kg BID

NS(=O)(=O)c1ccc(-n2nc(CCCNC(=O)Nc3ccc(C(F)(F)F)cc3)cc2-c2ccccc2)cc1 [OX1, 4-(5-phenyl-3-{3-[3-(4-trifluoromethyl-phenyl)-ureido]-propyl}-pyrazol-1-yl)-benzenesulfonamide]
IC50 [1]: 0.002 µM
body weight change at end of experiment compared to starting point ([2]; bleomycin mice, OX1 30 mg/kg QD oral gavage day -1 to 20, day 21 vs day -1, 30 mg/kg): −1% and ~1%
body weight course over 21 days ([2]; bleomycin mice, oral gavage day -1 to 20, OX1, OX3, Nintedanib 30 mg/kg QD, Pirfenidone 100 mg/kg BID): lost the least weight
lung weight (indicator of fluid accumulation and inflammation) ([2]; day 21, OX1 30 mg/kg QD oral): performed best in reducing bronchoalveolar fluid (BALF) accumulation and inflammation
soluble collagen in BALF ([2]; day 21, OX1 30 mg/kg QD oral, 30 mg/kg): most effective in controlling the overall collagen production; also recorded: most effective test article in lowering production of soluble collagen
neutrophil migration into BALF [2, 4]: effective
number of lymphocytes in BALF [2, 4]: most effective at maintaining a large number of lymphocytes
total cell (leukocyte) count in BALF [2, 4]: did not demonstrate the same level of reduction
increased collagen (fibrosis) score, trichrome [2, 5]: lowest tissue deposition of collagen; also recorded: markedly reduced
mean Ashcroft score (lung histology) [2, 5]: markedly reduced
mean score for mixed peribronchiolar/perivascular inflammation [2, 5]: lower
Loss of Nuclei [3]: Yes
IC50 ([3]; donor IPF06, readout at 72 hours, read-out: αSMA inhibition IC50 (μM), Patient Identifier IPF06): 1 µM
IC50 ([3]; donor IPF07, readout at 72 hours, read-out: αSMA inhibition IC50 (μM), Patient Identifier IPF07): 1.3 µM
IC50 ([3]; donor IPF08, readout at 72 hours, read-out: αSMA inhibition IC50 (μM), Patient Identifier IPF08): 1 µM
IC50 ([3]; mean of three IPF donors, 72 hours, read-out: αSMA inhibition IC50 (μM), Mean): 1.1 µM
